Test results: ChEMBL document CHEMBL3046773 (Med Chem Res, 2013); call rule not given here

Target: Voltage-dependent L-type calcium channel subunit alpha-1C (Cavia porcellus, UniProt O35505)
Assay: Antagonist activity at calcium channel in Cavia porcellus (guinea pig) ileum assessed as inhibition of KCl-induced muscle contraction at 10 mM
Type: tissue-based

Sequence of Voltage-dependent L-type calcium channel subunit alpha-1C (O35505 whole entry): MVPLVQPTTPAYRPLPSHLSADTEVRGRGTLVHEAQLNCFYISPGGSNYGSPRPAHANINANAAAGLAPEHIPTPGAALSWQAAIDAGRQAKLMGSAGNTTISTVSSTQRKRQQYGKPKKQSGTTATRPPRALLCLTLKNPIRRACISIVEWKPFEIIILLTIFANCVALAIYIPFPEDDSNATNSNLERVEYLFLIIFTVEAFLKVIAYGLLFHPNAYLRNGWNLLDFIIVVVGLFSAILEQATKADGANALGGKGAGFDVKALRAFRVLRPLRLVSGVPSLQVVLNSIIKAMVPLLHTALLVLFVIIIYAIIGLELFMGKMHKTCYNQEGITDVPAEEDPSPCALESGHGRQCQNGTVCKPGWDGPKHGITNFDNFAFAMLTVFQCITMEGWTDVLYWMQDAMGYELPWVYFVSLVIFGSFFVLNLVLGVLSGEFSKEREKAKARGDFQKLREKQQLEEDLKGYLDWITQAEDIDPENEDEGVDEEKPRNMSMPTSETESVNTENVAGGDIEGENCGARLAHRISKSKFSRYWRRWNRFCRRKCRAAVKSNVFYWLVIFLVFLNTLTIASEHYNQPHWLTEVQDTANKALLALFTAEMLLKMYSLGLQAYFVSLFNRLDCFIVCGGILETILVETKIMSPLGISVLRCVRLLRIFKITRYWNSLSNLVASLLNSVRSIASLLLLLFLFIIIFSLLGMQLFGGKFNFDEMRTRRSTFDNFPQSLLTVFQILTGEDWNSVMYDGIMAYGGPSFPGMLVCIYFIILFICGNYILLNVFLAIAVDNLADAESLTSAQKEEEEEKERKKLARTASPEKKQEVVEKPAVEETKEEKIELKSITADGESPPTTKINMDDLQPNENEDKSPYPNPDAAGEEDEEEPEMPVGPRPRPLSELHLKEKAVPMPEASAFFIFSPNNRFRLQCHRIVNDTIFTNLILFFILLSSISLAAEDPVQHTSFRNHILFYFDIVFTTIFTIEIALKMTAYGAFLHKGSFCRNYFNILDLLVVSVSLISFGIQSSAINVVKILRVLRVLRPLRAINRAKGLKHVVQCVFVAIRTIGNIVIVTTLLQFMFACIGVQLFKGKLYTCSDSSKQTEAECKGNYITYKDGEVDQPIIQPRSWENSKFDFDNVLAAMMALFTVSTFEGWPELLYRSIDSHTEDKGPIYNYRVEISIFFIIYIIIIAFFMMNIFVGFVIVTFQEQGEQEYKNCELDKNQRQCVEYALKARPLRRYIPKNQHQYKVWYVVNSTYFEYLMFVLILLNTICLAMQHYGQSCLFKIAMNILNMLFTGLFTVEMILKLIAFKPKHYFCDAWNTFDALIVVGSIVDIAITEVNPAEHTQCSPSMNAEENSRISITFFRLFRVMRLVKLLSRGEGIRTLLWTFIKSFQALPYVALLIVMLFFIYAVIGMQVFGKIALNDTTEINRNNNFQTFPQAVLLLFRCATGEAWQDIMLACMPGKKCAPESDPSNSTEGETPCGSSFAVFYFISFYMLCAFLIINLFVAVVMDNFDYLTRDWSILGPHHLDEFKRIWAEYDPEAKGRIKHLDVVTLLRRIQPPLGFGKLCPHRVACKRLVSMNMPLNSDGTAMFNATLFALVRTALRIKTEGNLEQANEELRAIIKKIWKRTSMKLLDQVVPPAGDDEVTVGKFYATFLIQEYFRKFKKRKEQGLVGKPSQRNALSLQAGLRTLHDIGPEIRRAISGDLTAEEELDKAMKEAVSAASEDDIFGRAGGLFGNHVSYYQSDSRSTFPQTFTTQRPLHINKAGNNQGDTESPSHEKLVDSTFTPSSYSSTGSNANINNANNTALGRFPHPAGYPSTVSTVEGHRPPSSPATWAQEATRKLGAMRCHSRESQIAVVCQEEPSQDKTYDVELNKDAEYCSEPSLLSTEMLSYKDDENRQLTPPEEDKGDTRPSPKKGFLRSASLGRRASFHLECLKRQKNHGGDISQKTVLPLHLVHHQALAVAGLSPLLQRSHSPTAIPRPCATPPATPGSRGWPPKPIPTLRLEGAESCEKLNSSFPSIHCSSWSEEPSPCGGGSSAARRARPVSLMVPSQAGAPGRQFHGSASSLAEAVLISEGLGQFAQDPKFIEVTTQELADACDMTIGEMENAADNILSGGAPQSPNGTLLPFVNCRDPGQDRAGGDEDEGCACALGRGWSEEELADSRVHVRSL

COC(=O)C1=C(C)NC(C)=C(C(=O)OC)C1c1ccccc1[N+](=O)[O-] [NIFEDIPINE]
inhibition (INH): Active
